Reference: patent US20040171680A1, “Treating Syndrome X with substituted tetralins and indanes” (priority 2002, published 2004)
Read-outs that look alike come from different tables or passages of the source.

What was measured:
[1] = system: db/db mice; experiment: Oral dosing in female db/db mice; format: in vivo; details: Mus musculus, 240 h, 1.0 mpk, 10 day oral dosing, % change compared to vehicle
Protocol: The compound was prepared as suspensions in 0.5% hydroxypropylmethylcellulose (Dow Chemical, Midland, Mich.). The dosing volume was 10 mL/kg of body weight. […] Body weight was measured in the mornings on Day 1, prior to dosing, and on Day 12 before bleeding. 18-24 hours after the final dose for each group, the mice were anesthetized with CO2/O2 (70:30) and bled by retro-orbital sinus puncture into micro-tubes containing clog activator and then put in ice. The serum samples were prepared by centrifugation. Serum glucose and triglycerides were determined by using COBAS Mira Plus blood chemistry analyzer (Roche Diagnostics, N.J.). Serum insulin was measured by using ALPCO insulin ELISA kit.
Statistical analysis was performed using the program Prism (Graphpad, Monrovia, Calif.) and performing one-way ANOVA with a Dunnet's multiple comparison test.

[2] = biological target: T1, PPARα (Rattus norvegicus, UniProt P37230); experiment: HD bDNA Assay (HD gene induction); format: cell-based
T1 construct: H4IIE rat hepatoma cell line was obtained from ATCC; host or cells: H4IIE rat hepatoma cells
T1 sequence (P37230 1-468): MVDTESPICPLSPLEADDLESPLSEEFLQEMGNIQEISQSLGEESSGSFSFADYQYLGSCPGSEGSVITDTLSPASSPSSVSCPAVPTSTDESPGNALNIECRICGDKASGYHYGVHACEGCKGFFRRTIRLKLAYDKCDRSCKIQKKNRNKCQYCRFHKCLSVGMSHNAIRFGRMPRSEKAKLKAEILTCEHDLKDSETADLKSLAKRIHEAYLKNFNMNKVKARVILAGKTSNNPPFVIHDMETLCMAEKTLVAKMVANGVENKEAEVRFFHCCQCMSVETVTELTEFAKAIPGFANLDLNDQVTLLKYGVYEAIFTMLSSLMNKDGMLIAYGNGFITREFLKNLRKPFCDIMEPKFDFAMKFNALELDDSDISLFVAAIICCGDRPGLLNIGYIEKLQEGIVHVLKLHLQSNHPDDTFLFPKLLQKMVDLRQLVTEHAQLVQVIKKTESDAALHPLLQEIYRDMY
Protocol: HD bDNA Assay H4IIE rat hepatoma cell line was obtained from ATCC. Cells were cultured in 175 cm^2 tissue culture flask or seeded in 96-well plate with (high serum content, 10% fetal bovine serum and 10% calf serum) culture medium and maintained at 37° C. and 5% CO2 throughout study. Twenty-four hours after the initial seeding of the 96-well plate by hand (approximate 100,000/well), the HD gene induction assay was initiated. Media was removed and replaced with 100 ul of low serum culture media (5% charcoal/dextran treated calf serum) containing vehicle (DMSO) or test compounds or standard. Cells returned to incubator for 24 hours culture. At the termination of the challenge, 50 ul lysis buffer with HD gene specific CE, LE, BL probes was added directly into each well to initiate the bDNA HD mRNA assay. The branched DNA assay was performed according to the manufacturer's protocol (Bayer Diagnostics; Emeryville. Calif.). At the end of the assay, the luminescence was quantitated in Dynex MLX microtiter plate luminometer. EC50's were determined by non-linear regression with a sigmoidal fit utilizing Graphpad Prism.

[3] = biological target: T2, PPARδ (Homo sapiens, UniProt Q03181); experiment: Transfection Assay for PPARδ Receptors (PPAR-Gal4 / Gal4-Luciferase reporter in HEK293 cells); format: cell-based; details: fold induction; PPARδ standard: FI = 36.1
T2 construct: a Gal4-Luciferase reporter is co-transfected
T2 sequence (Q03181 171-441 limits assumed): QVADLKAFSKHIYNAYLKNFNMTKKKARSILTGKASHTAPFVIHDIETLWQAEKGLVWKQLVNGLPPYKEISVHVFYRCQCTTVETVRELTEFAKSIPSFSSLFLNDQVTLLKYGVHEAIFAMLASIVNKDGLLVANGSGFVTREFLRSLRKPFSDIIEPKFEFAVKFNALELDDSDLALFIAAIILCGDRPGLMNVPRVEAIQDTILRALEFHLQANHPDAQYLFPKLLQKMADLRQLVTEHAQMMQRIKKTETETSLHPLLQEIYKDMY
Protocol: Transfection Assay for PPARδ Receptors
HEK293 cells were grown in DMEM/F-12 Media supplemented with 10% FBS and glutamine (GIBCOBRL). The cells were co-transfected with DNA for PPAR-Gal4 receptor and Gal4-Luciferase Reporter using the DMRIE-C Reagent. On the following day, the DNA-containing medium were replaced with 5% Charcoal treated FBS growth medium. After six hours, cells were seeded in 96 well plate and incubated at 37° C. in CO2 incubator overnight. Cells were challenged by test compounds and incubated for 24 hours at 37° C. in 5% CO2 incubator. Luciferase activity was assayed using the Steady-Glo Luciferase Assay Kit from Promega. DMRIE-C Reagent was purchased from GIBCO Cat. No.10459-014. OPTI-MEM I Reduced Serum Medium was purchased from GIBCO Cat. No. 31985. Steady-Glo Luciferase Assay Kit was obtained from Promega Part# E254B.

[4] = in section F, target not named there, values match the PPARα column, read-out: EC50
[5] = H4IIE rat hepatoma cells, 24 hours, read-out: PPARα EC50

Row | EC50 [2, 5] [nM] | Structure (SMILES) | other results
1 | 294 | CN(C)c1ccc(NC(=O)N(C)C2Cc3ccc(SC(C)(C)C(=O)O)cc3C2)cc1 (centres unmarked) [Example 27, 2-{2-[3-(4-Dimethylaminophenyl)-1-methylureido]indan-5-ylsulfanyl}-2-methylpropionic acid] | 
2 | 382 | CCCCCN(C(=O)Nc1ccc2c(c1)CCC2)C1Cc2ccc(SC(C)(C)C(=O)O)cc2C1 (centres unmarked) [Example 29, 2-[2-(3-Indan-5-yl-1-pentylureido)indan-5-ylsulfanyl}-2-methylpropionic acid] | 
3 | 657 | COCCN(C(=O)Nc1ccc(SC(F)(F)F)cc1)C1Cc2ccc(SC(C)(C)C(=O)O)cc2C1 (centres unmarked) [Example 34, 2-{2-[1-(2-Methoxyethyl)-3-(4-trifluoromethylsulfanylphenyl)ureido]indan-5-ylsulfanyl}-2-methylpropionic acid] | 
4 | 796 | CC(C)(Sc1ccc2c(c1)CC(N(CCCC(F)(F)F)C(=O)Nc1ccc(OC(F)(F)F)cc1)C2)C(=O)O (centres unmarked) [Example 36, 2-Methyl-2-{2-[1-(4,4,4-trifluorobutyl)-3-(4-trifluoromethoxyphenyl)ureido]indan-5-ylsulfanyl}propionic acid] | 
5 | 2340 | CCCCCCCN(C(=O)Nc1ccc(Cl)c(Cl)c1)C1Cc2ccc(SC(C)(C)C(=O)O)cc2C1 (centres unmarked) [Example 42, 2-{2-[3-(3,4-Dichlorophenyl)-1-heptylureido]indan-5-ylsulfanyl}-2-methylpropionic acid] | 
6 | 780 | CCCCCCCN(C(=O)Nc1ccc(OC(F)(F)F)cc1)C1Cc2ccc(SC3(C(=O)O)CCC3)cc2C1 (centres unmarked) [Example 45, 1-{2-[1-Heptyl-3-(4-trifluoromethoxyphenyl)ureido]indan-5-ylsulfanyl}-cyclobutanecarboxylic acid] | 

The next lines start with the molecule.

Row | Structure (SMILES) | EC50 [2, 5] [nM] | other results
7 | CCN(C(=O)Nc1ccc(OC(F)(F)F)cc1)C1CCc2cc(SC(C)(C)C(=O)O)ccc2C1 (centres unmarked) [Example 1, 2-{6-[1-Ethyl-3-(4-trifluoromethoxyphenyl)ureido]-5,6,7,8-tetrahydronaphthalen-2-ylsulfanyl}-2-methylpropionic acid] |  | change in vivo at 1 mg/kg ([1]; read-out: Δ BW): -12%; change in vivo at 1 mg/kg ([1]; read-out: Δ Plasma Glucose): -73%; change in vivo at 1 mg/kg ([1]; read-out: Δ Plasma Insulin): -46%; change in vivo at 1 mg/kg ([1]; read-out: Δ Plasma TG): -52%; EC50 [2, 4]: 23 nM
8 | CCCCCCN(C(=O)Nc1ccc(SC(F)(F)F)cc1)C1Cc2ccc(SC(C)(C)C(=O)O)cc2C1 (centres unmarked) [Example 15, 2-Methyl-2-{2-[1-hexyl-3-(4-trifluoromethylsulfanylphenyl)ureido]indan-5-ylsulfanyl}propionic acid] |  | EC50 [2, 4]: 123 nM; PPARδ FI [3]: 1.2
9 | C=CCCCN(C(=O)Nc1ccc(OC(F)(F)F)cc1)C1Cc2ccc(SC(C)(C)C(=O)O)cc2C1 (centres unmarked) [Example 19, 2-Methy-2-{2-[1-pent-4-enyl-3-(4-trifluoromethoxyphenyl)ureido]indan-5-ylsulfanyl}propionic acid] |  | EC50 [2, 4]: 125 nM; PPARδ FI [3]: 1.4
10 | CCCCN(C(=O)Nc1ccc(OC(F)(F)F)cc1)C1CCc2cc(SC(C)(C)C(=O)O)ccc2C1 (centres unmarked) [Example 22, 2-{6-[1-Butyl-3-(4-trifluoromethoxyphenyl)ureido]-5,6,7,8-tetrahydronaphthalen-2-ylsulfanyl}-2-methylpropionic acid] |  | EC50 [2, 4]: 219 nM
11 | CCCCN(C(=O)Nc1ccc(SC(F)(F)F)cc1)C1CCc2cc(SC(C)(C)C(=O)O)ccc2C1 (centres unmarked) [Example 23, 2-{6-[1-Butyl-3-(4-trifluoromethylsulfanylphenyl)ureido]-5,6,7,8-tetrahydronaphthalen-2-ylsulfanyl}-2-methylpropionic acid] |  | EC50 [2, 4]: 244 nM
12 | CCCCCCN(C(=O)Nc1ccc(OC(F)(F)F)cc1)C1CCc2cc(SC(C)(C)C(=O)O)ccc2C1 (centres unmarked) [Example 24, 2-{6-[1-Hexyl-3-(4-trifluoromethoxyphenyl)ureido]-5,6,7,8-tetrahydronaphthalen-2-ylsulfanyl}-2-methylpropionic acid] |  | EC50 [2, 4]: 235 nM
13 | CCN(C(=O)Nc1ccc(OC(F)(F)F)c(Br)c1)C1Cc2ccc(SC(C)(C)C(=O)O)cc2C1 (centres unmarked) [Example 25, 2-{2-[3-(3-Bromo-4-trifluoromethoxyphenyl)-1-ethylureido]indan-5-ylsulfanyl}-2-methylpropionic acid] | 208 | PPARδ FI [3]: 4.5
14 | CCN(C(=O)Nc1cccc(OC(F)(F)F)c1)C1Cc2ccc(SC(C)(C)C(=O)O)cc2C1 (centres unmarked) [Example 26, 2-{2-[1-Ethyl-3-(3-trifluoromethoxyphenyl)ureido]indan-5-ylsulfanyl}-2-methylpropionic acid] | 130 | PPARδ FI [3]: 2.1
15 | CCCCCN(C(=O)Nc1ccc(C)c([N+](=O)[O-])c1)C1Cc2ccc(SC(C)(C)C(=O)O)cc2C1 (centres unmarked) [Example 30, 2-Methyl-2-{2-[3-(4-methyl-3-nitrophenyl)-1-pentylureido]indan-5-ylsulfanyl} propionic acid] | 385 | 
16 | CC(C)(Sc1ccc2c(c1)CC(N(Cc1cccc3ccccc13)C(=O)Nc1ccc(OC(F)(F)F)cc1)C2)C(=O)O (centres unmarked) [Example 31, 2-Methyl-2-{2-[1-naphthalen-1 ylmethyl-3-(4-trifuoromethoxyphenyl)-ureido]indan-5-ylsulfanyl}-propionic acid] | 497 | 
17 | COC(=O)CCCCCN(C(=O)Nc1ccc(C(C)C)cc1)C1Cc2ccc(SC(C)(C)C(=O)O)cc2C1 (centres unmarked) [Example 38, 6-[1-[5-(1-Carboxy-1-methylethylsulfanyl)indan-2-yl]-3-(4-isopropylphenyl)-ureido]hexanoic acid methyl ester] | 950 | 
18 | CC(C)(Sc1ccc2c(c1)CC(N(CC1CCCCC1)C(=O)Nc1ccc(OC(F)(F)F)cc1)C2)C(=O)O (centres unmarked) [Example 40, 2-{2-[1-Cyclohexylmethyl-3-(4-trifluoromethoxyphenyl)ureido]indan-5-ylsulfanyl]-2-methylpropionic acid] | 1300 | 
19 | CC(C)CN(C(=O)Nc1ccc(OC(F)(F)F)cc1)C1Cc2ccc(SC(C)(C)C(=O)O)cc2C1 (centres unmarked) [Example 41, 2-{2-[1-Isobutyl-3-(4-trifluoromethoxyphenyl)ureido]indan-5-ylsulfanyl}-2-methylpropionic acid] | 2210 | 
20 | CN(C)CCN(C(=O)Nc1ccc(SC(F)(F)F)cc1)C1Cc2ccc(SC(C)(C)C(=O)O)cc2C1 (centres unmarked) [Example 43, 2-{2-[1-(2-Dimethylaminoethyl)-3-(4-trifluoromethylsulfanylphenyl)ureido]indan-5-ylsulfanyl}-2-methylpropionic acid] | 2990 | 
21 | CCCCCCCN(C(=O)Nc1cccc(Cl)c1)C1Cc2ccc(SC(C)(C)C(=O)O)cc2C1 (centres unmarked) [Example 44, 2-{2-[3-(3-Chlorophenyl)-1-heptylureido]indan-5-ylsulfanyl}-2-methylpropionic acid] | 2090 | 
